{"source": "patent US6248785A", "about": "“IL-8 receptor antagonists” (SmithKline Beecham Corporation, priority 1999, dated 2001)", "target": "T1, recombinant IL-8 Rb, or Type II, receptor (permissive receptor) (Homo sapiens, UniProt P25025)", "T1 construct": "expressed in transfected cells; host or cells: Chinese hamster ovary (CHO) cells, membranes", "T1 sequence (P25025 1-360)": "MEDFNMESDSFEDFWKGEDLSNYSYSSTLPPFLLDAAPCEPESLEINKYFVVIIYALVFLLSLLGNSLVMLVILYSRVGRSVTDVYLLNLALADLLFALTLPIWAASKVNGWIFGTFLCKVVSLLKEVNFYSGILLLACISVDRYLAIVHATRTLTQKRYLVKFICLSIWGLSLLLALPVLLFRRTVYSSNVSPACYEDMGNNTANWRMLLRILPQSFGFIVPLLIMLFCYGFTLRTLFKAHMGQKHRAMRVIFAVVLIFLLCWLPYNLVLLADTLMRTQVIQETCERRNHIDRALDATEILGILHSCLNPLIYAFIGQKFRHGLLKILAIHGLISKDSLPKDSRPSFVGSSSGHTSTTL", "assay": "IL-8 receptor binding assay, permissive model (125I IL-8 / 125I Gro-a, CHO membranes)", "details": "recombinant human IL-8Rb membranes from Chinese hamster ovary cells; 125I IL-8 (0.25 nM) or 125I Gro-a; 1 hour at room temperature", "text": "[^125 I] IL-8 (human recombinant) is obtained from Amersham Corp., Arlington Heights, Ill., with specific activity 2000 Ci/mmol. Gro-a is obtained from NEN-New England Nuclear. All other chemicals are of analytical grade. High levels of recombinant human IL-8 type a and b receptors were individually expressed in Chinese hamster ovary cells as described previously (Holmes, et al., Science, 1991, 253, 1278). The Chinese hamster ovary membranes were homogenized according to a previously described protocol (Haour, et al., J Biol Chem., 249 pp 2195-2205 (1974)). Except that the homogenization buffer is changed to 10 mM Tris-HCL, 1 mM MgSO4, 0.5 mM EDTA (ethylene-diaminetetra-acetic acid), 1 mMPMSF (a-toluenesulphonyl fluoride), 0.5 mg/L Leupeptin, pH 7.5. Membrane protein concentration is determined using Pierce Co. micro-assay kit using bovine serum albumin as a standard. All assays are performed in a 96-well micro plate format. Each reaction mixture contains ^125 I IL-8 (0.25 nM) or ^125 I Gro-a and 0.5 μg/mL of IL-8Ra or 1.0 μg/mL of IL-8Rb membranes in 20 mM Bis-Trispropane and 0.4 mM Tris HCl buffers, pH 8.0, containing 1.2 mM MgSO4, 0.1 mM EDTA, 25 mM NaCl and 0.03% CHAPS. […] The filter is then dried and counted on the Betaplate liquid scintillation counter. […]", "data": [{"smiles": "N#Cc1ccc(NC(=C[N+](=O)[O-])Nc2ccccc2Br)c(O)c1", "note": "[Example 1, 1-Nitro-2-[2-hydroxy-4-cyanophenylamino]-2-[2-bromophenylamino]ethylene]", "values": [{"measurement": "IC50 in the permissive models for IL-8 receptor inhibition", "result": "< 50", "unit": "µg/mL"}]}]}
